According to patent US20190308987A1, “DUAL MODULATORS OF BOTH MU AND KAPPA OPIOID RECEPTORS” (priority 2016, published 2019):
“And” between values parts separate entries of the source, which are not always exact repeats. Equal values may be shown once. “Also recorded” adds a separate entry of the source.

Tests used:
KOR = biological target: T1, KOR (Homo sapiens, UniProt P41145); settings: NAP data from ref 9b, cited from earlier work
T1 construct: expressed in transfected cells; host or cells: CHO cells (membranes)
T1 sequence (P41145 whole entry): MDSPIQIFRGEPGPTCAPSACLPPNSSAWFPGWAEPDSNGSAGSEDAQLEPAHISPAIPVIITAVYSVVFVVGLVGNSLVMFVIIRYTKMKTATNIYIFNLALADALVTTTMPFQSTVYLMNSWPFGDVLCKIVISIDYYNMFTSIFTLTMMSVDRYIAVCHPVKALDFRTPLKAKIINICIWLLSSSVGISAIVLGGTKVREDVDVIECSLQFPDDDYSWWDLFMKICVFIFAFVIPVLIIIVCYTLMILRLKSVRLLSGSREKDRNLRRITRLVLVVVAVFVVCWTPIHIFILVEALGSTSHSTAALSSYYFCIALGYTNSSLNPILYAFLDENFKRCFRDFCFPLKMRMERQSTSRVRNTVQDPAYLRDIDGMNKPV

[1] = test system: mouse distal colon circular muscle; assay: Colon circular muscle isometric tension recordings, distal colon
Experimental: (§1) Mice were euthanized by cervical dislocation. The colon was dissected, flushed of its contents, and trimmed of mesentery. […] The tissues, 0.5 cm in length, were suspended vertically along the axis of the circular muscle with a metal triangle tied to a hook under 1 g of passive tension in 15 mL siliconized organ baths.
(§2) Data are presented as the mean±S.E.M, values of P≤0.05 were considered significant.

MOR = MOR (Mus musculus, UniProt P42866); settings: relative to DAMGO, NAP data from ref 9b; cited from earlier work
Sequence of MOR (P42866 whole entry): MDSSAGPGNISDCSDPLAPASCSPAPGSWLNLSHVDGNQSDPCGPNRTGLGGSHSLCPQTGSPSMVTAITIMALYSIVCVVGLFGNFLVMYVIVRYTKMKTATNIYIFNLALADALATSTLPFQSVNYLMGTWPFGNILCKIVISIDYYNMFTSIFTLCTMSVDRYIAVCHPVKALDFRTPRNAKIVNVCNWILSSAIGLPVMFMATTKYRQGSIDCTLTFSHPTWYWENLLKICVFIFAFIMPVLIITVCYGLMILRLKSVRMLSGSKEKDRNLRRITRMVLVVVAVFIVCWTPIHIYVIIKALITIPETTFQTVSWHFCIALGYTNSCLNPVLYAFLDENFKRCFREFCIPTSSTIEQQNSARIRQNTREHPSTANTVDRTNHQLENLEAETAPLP

[2] = test system: mouse proximal colon circular muscle; assay: Colon circular muscle isometric tension recordings, proximal colon
Experimental: as §1, §2

colonic motility [3] = settings: rodent models; cited from earlier work
[4] = test system: guinea pig ileum Longitudinal Muscle Myenteric Plexus (LMMP); assay: Electrical field stimulated contractions in LMMP strips
Experimental: Male albino guinea pigs (350-450 g) were euthanized by asphyxiation with CO2. A segment of ileum was removed and placed in a dissection bath filled with pre-oxygenated Krebs' solution (118 mM NaCl, 4.6 mM KCl, 1.3 mM NaH2PO4, 1.2 mM MgSO4, 25 mM NaHCO3, 11 mM glucose, and 2.5 mM CaCl2). Longitudinal Muscle Myenteric Plexus (LMMP) strips were prepared as previously described.^26 Electrical field stimulation (EFS) (50 V, 7.5 Hz, unless stated otherwise) was applied through concentric electrodes over longitudinal muscle or L-type stimulating electrodes over circular muscle strips to produce neurogenic contractions/relaxations. Drugs were added in single or cumulative doses depending on the assay to determine their inhibitory effects on the neurogenic responses.

colonic motility [5] = assay: Colonic bead expulsion assay; format: in vivo, mice; settings: morphine 3 mg/kg; naive mice 17 min
Experimental: Mice were habituated and fasted as described above for the gastrointestinal transit analysis. […] At 20 min post-injection, animals were anesthetized with isoflurane (1-2 min) to insert a single 2-mm glass bead into the distal colon at a distance of 3 cm from the anus. Bead insertion was accomplished using a glass rod with a fire-polished end to avoid tissue damage and marked at 3 cm.^25 After bead insertion, mice were placed in individual cages and the time to bead expulsion was monitored. Animals were monitored for a maximum of 2 h unless bead expulsion occurred sooner.

intestinal transit = assay: Charcoal meal test for gastrointestinal transit; format: in vivo, mice; settings: charcoal gavage, compound alone
Experimental: Forty-eight hours before testing, mice were placed in cages with raised mesh wire to suspend them above their bedding and prevent ingestion of feces or bedding. The animals were habituated for 24 h in the presence of food and water and then fasted for 24 h with free access to water as previously reported.^24 This time frame was chosen to deplete the intestine and colon of any feces. To maintain caloric intake and to avoid hypoglycemia, mice had access to a sugar water solution consisting of a final concentration of 5% dextrose for the first 8 h of the fasting period. […] At 30 min after the administration of the charcoal meal, the mice were euthanized by cervical dislocation, and the small intestine from the jejunum to the cecum was dissected and placed in cold saline to stop peristalsis. The distance traveled by the leading edge of the charcoal meal was measured relative to the total length of the small intestine, and the percentage of intestinal transit for each animal was calculated as percentage transit (charcoal distance)/(small intestinal length)×100. This is referred to as intestinal transit in the text.

morphine antinociception = assay: Warm water tail immersion (tail flick) test; format: in vivo, Swiss Webster mice; settings: morphine alone, warm water tail flick
Experimental: Male Swiss Webster mice (Harlan Laboratories, Indianapolis, Ind.) weighing 25-30 g were housed 5 to a cage in animal care quarters and maintained at […] on a 12 h light-dark cycle. Food and water were available ad libitum. The mice were brought to a test room (22±2° C., 12 h light-dark cycle), marked for identification and allowed 18 h to recover from transport and handling. Protocols and procedures were approved by the Institutional Animal Care and Use Committee (IACUC) at Virginia Commonwealth University Medical Center and comply with the recommendations of the IASP (International Association for the Study of Pain).
The warm water tail-immersion test was performed according to previously described methods using a water bath with the temperature maintained at 56±0.1° C.^20 Briefly, before giving the mice injections, a baseline (control) latency was determined. Only mice with a control reaction time of 2 to 4 s were used. The average baseline latency for these experiments was 3.0±0.1 s. The test latency after drug treatment was assessed at the appropriate time, and a 10 s maximal cutoff time was imposed to prevent tissue damage. Antinociception was quantified according to established procedures as the percentage of maximum possible effect (% MPE), which was calculated as follows: % MPE=[(test latency−control latency)/(10−control latency)]×100.^21 Percentage MPE was calculated for each mouse, using at least six mice per group.
Intracerebroventricular (ICV) injections were performed as described previously.^22 Mice were anesthetized with 2.5% isoflurane and a horizontal incision was made in the scalp. A needle was inserted to a depth of 3 mm into the lateral ventrical (2 mm rostral and 2 mm lateral at a 45° angle from the bregma). At intervals, 5 μL injections of drug or vehicle were made using this guide insertion to the same depth using a needle with a guard in nonanesthetized animals.^22, 23 Animals underwent the anesthetized surgery in the morning of the experiment and were then injected with drug at intervals indicated in the text without additional anesthesia. Immediately after testing, the animals were euthanized to minimize any type of distress, according to IACUC guidelines.

GI transit = settings: humans; cited from earlier work

For `O=C(NC1CCC2(O)C3Cc4ccc(O)c5c4C2(CCN3CC2CC2)C1O5)c1ccncc1` (stereo not drawn) [NAP, 17-Cyclopropylmethyl-3, 14beta-dihydroxy-4,5alpha-epoxy-6beta-(4′-pyridylcarboxamido)morphinan, reference compound], the EC50 (KOR; 35S-GTP[γS]) is given as 28.8 ± 14.4 nM, the “% max of agonist” value (KOR; relative to U50,488H) is given as 45.5±4.4% and the “inhibition of morphine-induced contractions” value ([1]; 1 nM antagonist, distal colon) is given as “neither NAP nor BNAP showed significant inhibition of morphine-induced contractions”. For the same compound, the “antagonism of morphine effects” value ([1]; 10 nM antagonist, distal colon) was “neither NAP nor BNAP showed significant antagonism of morphine effects”, the “morphine pD2 in presence of antagonist” value ([1]; 100 nM antagonist, distal colon (naive 6.0)) was 5.3 and the “contractions induced by compound alone” value ([1]; up to 30 μM, distal colon preparation) was “Neither BNAP nor NAP alone at concentrations up to 30 μM induced contractions”. The “% max of agonist” value (MOR) was 22.72±0.84% and 22.7 ± 0.8%, the “inhibition of morphine-induced contractions” value ([2]; 1 nM antagonist, proximal colon) was “neither NAP nor BNAP showed significant inhibition of morphine-induced contractions” and the “morphine pD2 in presence of antagonist” value ([2]; 10 nM antagonist, proximal colon (naive 6.8)) was 5.9. For the same compound, the “further reduction of morphine pD2” value ([2]; 100 nM versus 10 nM antagonist, proximal colon) was “no further reduction of the morphine pD2” and the “contractions induced by compound alone” value ([2]; up to 30 μM, proximal colon preparation) was “Neither BNAP nor NAP alone at concentrations up to 30 μM induced contractions”.

For `COC(=O)[C@@H]1C[C@H](OC(C)=O)C(=O)[C@H]2[C@@]1(C)CC[C@H]1C(=O)O[C@H](c3ccoc3)C[C@]21C` [Salvinorin A], the “effect on colonic / GI motility” value (colonic motility [3]) is listed as “reduced colonic motility; also recorded: can reduce GI motility”.

With `C[C@@H](NC(=O)[C@@H](N)Cc1ccc(O)cc1)C(=O)NCC(=O)N(C)[C@@H](Cc1ccccc1)C(=O)NCCO` [DAMGO, reference compound] the “pIC50 for inhibition of EFS contractions” value ([4]; guinea pig ileum LMMP) was 7.67±0.03 and the “effect of nor-BNI on agonist inhibition of EFS contractions” value ([4]; nor-BNI 0.1 μM, 15 min pretreatment) was “did not significantly effect DAMGO inhibition of EFS contractions”.

For `CN1CC[C@]23c4c5ccc(O)c4O[C@H]2[C@@H](O)C=C[C@H]3[C@H]1C5` [morphine, reference compound], the bead expulsion time (colonic motility [5]) was 75 min, the “reduction of intestinal motility” value (intestinal transit) was 3 fold and the antinociception (morphine antinociception) was “dose dependently induced antinociception”.

For `CN(C(=O)C(c1ccccc1)c1ccccc1)[C@H](CN1CC[C@H](O)C1)c1ccccc1` [Asimadoline], the “effect on GI transit” value (GI transit) is listed as “did not alter GI transit”.
